How the values were obtained:
Human SGLT2 (hSGLT2) = Human SGLT2 (hSGLT2) (Homo sapiens (Human), UniProt P31639); assay: Inhibitory effects on human SGLT2 activities (14C-AMG uptake, sodium-dependent glucose transport assay); assay type: cell-based; conditions: hSGLT2-expressing CHO cells, 37° C. for 2 h, single determinations
Text: Test 1: Cloning and Cell Line Construction for Human SGLT2
Human SGLT2 (hSGLT2) gene was amplified by PCR from cDNA-Human Adult Normal Tissue Kidney (Invitrogen). The hSGLT2 sequence was cloned into pcDNA3.1(+) for mammalian expression and stably transfected into chinese hamster ovary (CHO) cells. SGLT2-expressing clones were selected based on resistance to G418 antibiotic (Geneticin) and activity in the ^14C-α-methyl-D-glucopyranoside (^14C-AMG) uptake assay.
Test 2: Inhibitory Effects on Human SGLT2 Activities
(§1) For sodium-dependent glucose transport assay, cells expressing hSGLT2 were seeded into a 96-well culture plate at a density of 5×10^4 cells/well in RPMI medium 1640 containing 10% fetal bovine serum. The cells were used 1 day after plating. They were incubated in pretreatment buffer (10 mM HEPES, 5 mM Tris, 140 mM choline chloride, 2 mM KCl, 1 mM CaCl2, and 1 mM MgCl2, pH 7.4) at 37° C. for 10 min. They were then incubated in uptake buffer (10 mM HEPES, 5 mM Tris, 140 mM NaCl, 2 mM KCl, 1 mM CaCl2, 1 mM MgCl2, and 1 mM ^14C-nonlabeled AMG pH 7.4) containing ^14C-labeled AMG (8 μM) and the inventive compound or dimethyl sulfoxide (DMSO) vehicle at 37° C. for 2 h. Cells were washed twice with washing buffer (pretreatment buffer containing 10 mM AMG at room temperature) and then the radioactivity was measured using a liquid scintillation counter. IC50 was determined by nonlinear regression analysis using GraphPad PRISM [Katsuno, K. et al. J. Pharmacol. Exp. Ther. 2007, 320, 323-330; Han, S. et al. Diabetes, 2008, 57, 1723-1729].

Human SGLT1 (hSGLT1) = Human SGLT1 (hSGLT1) (Homo sapiens (Human), UniProt P13866); assay: Inhibitory effects on human SGLT1 activities (14C-AMG uptake, sodium-dependent glucose transport assay); assay type: cell-based; conditions: 37° C. for 2 h, single determinations
Sequence of Human SGLT1 (hSGLT1) (P13866 whole entry): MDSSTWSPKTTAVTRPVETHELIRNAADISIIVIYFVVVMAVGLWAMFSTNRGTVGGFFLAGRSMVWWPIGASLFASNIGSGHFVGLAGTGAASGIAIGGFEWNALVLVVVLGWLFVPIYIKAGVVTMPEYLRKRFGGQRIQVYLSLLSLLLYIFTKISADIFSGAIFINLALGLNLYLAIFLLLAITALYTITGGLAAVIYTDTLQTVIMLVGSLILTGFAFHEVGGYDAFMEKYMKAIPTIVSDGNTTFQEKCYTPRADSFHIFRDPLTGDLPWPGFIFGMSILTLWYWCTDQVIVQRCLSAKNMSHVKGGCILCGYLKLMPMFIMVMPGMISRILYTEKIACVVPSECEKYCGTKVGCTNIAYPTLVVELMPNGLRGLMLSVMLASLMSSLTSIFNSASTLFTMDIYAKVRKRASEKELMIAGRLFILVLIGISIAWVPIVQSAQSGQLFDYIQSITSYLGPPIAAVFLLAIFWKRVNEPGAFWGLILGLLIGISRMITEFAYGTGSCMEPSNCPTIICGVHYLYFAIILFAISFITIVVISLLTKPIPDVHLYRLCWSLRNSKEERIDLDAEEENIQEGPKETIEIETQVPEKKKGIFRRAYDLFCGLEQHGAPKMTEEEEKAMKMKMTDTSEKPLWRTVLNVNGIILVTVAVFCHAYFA
Experimental: Test 3: Inhibitory Effects on Human SGLT1 Activities
as §1, with “^14C-labeled” for “^14C-labeled AMG”, “inhibitor” for “the inventive compound”, “PRISM.” for “PRISM [Katsuno, K. et al. J. Pharmacol. Exp. Ther. 2007, 320, 323-330; Han, S. et al. Diabetes, 2008, 57, 1723-1729].”

Sequence of Human SGLT2 (hSGLT2) (P31639 whole entry): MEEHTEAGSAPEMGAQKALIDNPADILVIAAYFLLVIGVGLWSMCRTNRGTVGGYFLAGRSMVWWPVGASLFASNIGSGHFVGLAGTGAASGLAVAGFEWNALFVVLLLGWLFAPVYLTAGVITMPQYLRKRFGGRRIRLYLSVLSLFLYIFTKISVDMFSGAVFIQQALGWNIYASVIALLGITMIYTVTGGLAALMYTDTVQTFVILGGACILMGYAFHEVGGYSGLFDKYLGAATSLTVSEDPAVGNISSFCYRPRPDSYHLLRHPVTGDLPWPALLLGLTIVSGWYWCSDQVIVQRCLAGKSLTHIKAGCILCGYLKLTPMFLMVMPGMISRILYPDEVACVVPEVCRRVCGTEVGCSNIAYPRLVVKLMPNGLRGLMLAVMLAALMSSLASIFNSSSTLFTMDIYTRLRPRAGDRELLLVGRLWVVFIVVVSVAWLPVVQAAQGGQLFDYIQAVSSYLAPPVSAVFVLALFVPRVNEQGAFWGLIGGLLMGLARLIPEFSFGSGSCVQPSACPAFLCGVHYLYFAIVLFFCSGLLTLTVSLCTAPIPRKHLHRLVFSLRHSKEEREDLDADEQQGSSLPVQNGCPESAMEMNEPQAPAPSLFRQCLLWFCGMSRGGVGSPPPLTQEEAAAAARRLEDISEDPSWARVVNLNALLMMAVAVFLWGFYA

IC50 (Human SGLT2 (hSGLT2)) | IC50 (Human SGLT1 (hSGLT1)) | SMILES
0.44 nM | 15.2 nM | COc1ccc(Cc2cc([C@@H]3O[C@H](CO)[C@@H](O)[C@H](O)[C@H]3O)c3c(c2Br)CCC3)cc1 [Compound E001, (2S,3R,4R,5S,6R)-2-(7-Bromo-6-(4-methoxybenzyl)-2,3-dihydro-1H-inden-4-yl)-6-(hydroxymethyl)tetrahydro-2H-pyran-3,4,5-triol]
0.75 nM | 62.7 nM | CCOc1ccc(Cc2cc([C@@H]3O[C@H](CO)[C@@H](O)[C@H](O)[C@H]3O)c3c(c2Br)CCC3)cc1 [Compound E002, (2S,3R,4R,5S,6R)-2-(7-Bromo-6-(4-ethoxybenzyl)-2,3-dihydro-1H-inden-4-yl)-6-(hydroxymethyl)tetrahydro-2H-pyran-3,4,5-triol]
0.61 nM | 45.4 nM | CCc1ccc(Cc2cc([C@@H]3O[C@H](CO)[C@@H](O)[C@H](O)[C@H]3O)c3c(c2Br)CCC3)cc1 [Compound E003, (2S,3R,4R,5S,6R)-2-(7-Bromo-6-(4-ethylbenzyl)-2,3-dihydro-1H-inden-4-yl)-6-(hydroxymethyl)tetrahydro-2H-pyran-3,4,5-triol]
0.68 nM | 37.2 nM | COc1ccc(Cc2cc([C@@H]3O[C@H](CO)[C@@H](O)[C@H](O)[C@H]3O)c3c(c2Cl)CCC3)cc1 [Compound E004, (2S,3R,4R,5S,6R)-2-(7-Chloro-6-(4-methoxybenzyl)-2,3-dihydro-1H-inden-4-yl)-6-(hydroxymethyl)tetrahydro-2H-pyran-3,4,5-triol]
0.79 nM | 26.8 nM | COc1ccc(Cc2cc([C@@H]3O[C@H](CO)[C@@H](O)[C@H](O)[C@H]3O)c3c(c2C)CCC3)cc1 [Compound E005, (2R,3S,4R,5R,6S)-2-(Hydroxymethyl)-6-(6-(4-methoxybenzyl)-7-methyl-2,3-dihydro-1H-inden-4-yl)tetrahydro-2H-pyran-3,4,5-triol]
0.55 nM | 116 nM | CCOc1ccc(Cc2cc([C@@H]3O[C@H](CO)[C@@H](O)[C@H](O)[C@H]3O)c3c(c2Cl)CCC3)cc1 [Compound E006, (2S,3R,4R,5S,6R)-2-(7-Chloro-6-(4-ethoxybenzyl)-2,3-dihydro-1H-inden-4-yl)-6-(hydroxymethyl)tetrahydro-2H-pyran-3,4,5-triol]
– | 160 nM | CCOc1ccc(Cc2cc([C@@H]3O[C@H](CO)[C@@H](O)[C@H](O)[C@H]3O)c3c(c2C)CCC3)cc1 [Compound E007, (2S,3R,4R,5S,6R)-2-(6-(4-Ethoxybenzyl)-7-methyl-2,3-dihydro-1H-inden-4-yl)-6-(hydroxymethyl)tetrahydro-2H-pyran-3,4,5-triol]
0.88 nM | 44 nM | CCc1ccc(Cc2cc([C@@H]3O[C@H](CO)[C@@H](O)[C@H](O)[C@H]3O)c3c(c2Cl)CCO3)cc1 [Compound E008, (2S,3R,4R,5S,6R)-2-(4-Chloro-5-(4-ethylbenzyl)-2,3-dihydrobenzofuran-7-yl)-6-(hydroxymethyl)tetrahydro-2H-pyran-3,4,5-triol]
1.6 nM | 77.2 nM | CCOc1ccc(Cc2cc([C@@H]3O[C@H](CO)[C@@H](O)[C@H](O)[C@H]3O)c3c(c2Cl)CCCO3)cc1 [Compound E009, (2S,3R,4R,5S,6R)-2-(5-Chloro-6-(4-ethoxybenzyl)chroman-8-yl)-6-(hydroxymethyl)tetrahydro-2H-pyran-3,4,5-triol]
1.6 nM | 16.9 nM | COc1ccc(Cc2cc([C@@H]3O[C@H](CO)[C@@H](O)[C@H](O)[C@H]3O)c3c(c2Cl)CCCO3)cc1 [Compound E010, (2S,3R,4R,5S,6R)-2-(5-Chloro-6-(4-methoxybenzyl)chroman-8-yl)-6-(hydroxymethyl)tetrahydro-2H-pyran-3,4,5-triol]
0.85 nM | 27 nM | CCc1ccc(Cc2cc([C@@H]3O[C@H](CO)[C@@H](O)[C@H](O)[C@H]3O)c3c(c2Cl)CCCO3)cc1 [Compound E011, (2S,3R,4R,5S,6R)-2-(5-Chloro-6-(4-ethylbenzyl)chroman-8-yl)-6-(hydroxymethyl)tetrahydro-2H-pyran-3,4,5-triol]
1.7 nM | 34.4 nM | COc1ccc(Cc2cc([C@@H]3O[C@H](CO)[C@@H](O)[C@H](O)[C@H]3O)c3c(c2Cl)CCO3)cc1 [Compound E012, (2S,3R,4R,5S,6R)-2-(4-Chloro-5-(4-methoxybenzyl)-2,3-dihydrobenzofuran-7-yl)-6-(hydroxymethyl)tetrahydro-2H-pyran-3,4,5-triol]
0.83 nM | 105 nM | CCOc1ccc(Cc2cc([C@@H]3O[C@H](CO)[C@@H](O)[C@H](O)[C@H]3O)c3c(c2Cl)CCO3)cc1 [Compound E013, (2S,3R,4R,5S,6R)-2-(4-Chloro-5-(4-ethoxybenzyl)-2,3-dihydrobenzofuran-7-yl)-6-(hydroxymethyl)tetrahydro-2H-pyran-3,4,5-triol]
0.75 nM | 61.5 nM | CCc1ccc(Cc2cc([C@@H]3O[C@H](CO)[C@@H](O)[C@H](O)[C@H]3O)c3c(c2Cl)OCCC3)cc1 [Compound E014, (2S,3R,4R,5S,6R)-2-(8-Chloro-7-(4-ethylbenzyl)chroman-5-yl)-6-(hydroxymethyl)tetrahydro-2H-pyran-3,4,5-triol]
– | 34 nM | COc1ccc(Cc2cc([C@@H]3O[C@H](CO)[C@@H](O)[C@H](O)[C@H]3O)c3c(c2Cl)OCCO3)cc1 [Compound E015, (2S,3R,4R,5S,6R)-2-(8-Chloro-7-(4-methoxybenzyl)-2,3-dihydrobenzo[b][1,4]dioxin-5-yl)-6-(hydroxymethyl)tetrahydro-2H-pyran-3,4,5-triol]
0.92 nM | 83 nM | CCc1ccc(Cc2cc([C@@H]3O[C@H](CO)[C@@H](O)[C@H](O)[C@H]3O)c3c(c2Cl)OCCO3)cc1 [Compound E016, (2S,3R,4R,5S,6R)-2-(8-Chloro-7-(4-ethylbenzyl)-2,3-dihydrobenzo[b][1,4]dioxin-5-yl)-6-(hydroxymethyl)tetrahydro-2H-pyran-3,4,5-triol]
1.1 nM | 52.2 nM | OC[C@H]1O[C@@H](c2cc(Cc3ccc(C4CC4)cc3)c(Cl)c3c2OCC3)[C@H](O)[C@@H](O)[C@@H]1O [Compound E017, (2S,3R,4R,5S,6R)-2-(4-Chloro-5-(4-cyclopropylbenzyl)-2,3-dihydrobenzofuran-7-yl)-6-(hydroxymethyl)tetrahydro-2H-pyran-3,4,5-triol]
0.85 nM | 26.6 nM | OC[C@H]1O[C@@H](c2cc(Cc3ccc(C4CC4)cc3)c(Cl)c3c2OCCC3)[C@H](O)[C@@H](O)[C@@H]1O [Compound E018, (2S,3R,4R,5S,6R)-2-(5-Chloro-6-(4-cyclopropylbenzyl)chroman-8-yl)-6-(hydroxymethyl)tetrahydro-2H-pyran-3,4,5-triol]
0.98 nM | 111 nM | CCc1ccc(Cc2cc([C@@H]3O[C@H](CO)[C@@H](O)[C@H](O)[C@H]3O)c3c(c2Cl)CC(C)S3)cc1 (stereo partly drawn) [Compound E019, (2S,3R,4R,5S,6R)-2-(4-Chloro-5-(4-ethylbenzyl)-2-methyl-2,3-dihydrobenzo[b]thiophen-7-yl)-6-(hydroxymethyl)tetrahydro-2H-pyran-3,4,5-triol]
0.69 nM | 115 nM | CCOc1ccc(Cc2cc([C@@H]3O[C@H](SC)[C@@H](O)[C@H](O)[C@H]3O)c3c(c2Cl)CC(C)O3)cc1 (stereo partly drawn) [Compound E020, (2S,3R,4R,5S,6R)-2-(4-Chloro-5-(4-ethoxybenzyl)-2-methyl-2,3-dihydrobenzofuran-7-yl)-6-(methylthio)tetrahydro-2H-pyran-3,4,5-triol]

Source: patent US9340521B2, “Method for dual inhibition of SGLT1 and SGLT2 using diphenylmethane derivatives” (GREEN CROSS CORPORATION, priority 2013, dated 2016)
